Results published in patent publication US20120009601A1, “METHODS AND COMPOSITIONS FOR REPROGRAMMING CELLS” (THE GENERAL HOSPITAL CORPORATION, priority 2010, published 2012).
Entries after “also recorded” stand apart in the source; their conditions may differ.

Key:
[1] = test system: induced hepatocyte-like cells (iHep); assay: Generation of human iPS cells (iPS-hHepC) from induced hepatocyte-like cells (iHep); type: cell-based; settings: 96 hr
Experimental: Human induced pluripotent stem (iPS) cells were generated from the hepatocyte-like cells that had been generated from human hepatoma cells, using 5′-aza-2′-deoxycytidine (5-AZAC) plus trichostatin A (TSA) without Oct3/4 and c-Myc. The iHep were maintained using a medium for Primate ES cell culture supplemented with 40 ng/ml of hepatocytes growth factor and 20 ng/ml of epidermal growth factor. Furthermore, 500 nM 5′-aza-2′ deoxycytidine (5-AZAC), 150 nM trichostatin A (TSA), 1 μM EMD 616452 as an inhibitor for Tgf beta receptor I kinase/activin-like kinase 5 (Alk5) and 0.5 mM valproic acid (VPA) were administered in the Primate ES cell medium for 96 hr. After 14 days, human iPS cells (iPS-hHepC) were established. Oct3/4 was reactivated by 5-AZAC+TSA. Furthermore, Sox2 and Klf4 were reactivated by EMD 616452 and VPA, respectively.

[2] = test system: human iPS cells that carry mutant p53; assay: Evaluation of cancerous risk: microvessel density (MVD) within teratomas from human iPS cell lines in mice; type: in vivo; settings: cells treated with PRIMA-1 20 μM; teratomas in immunodeficient mice, anti-CD31 immunofluorescence
From the text: The various human iPS cell lines (No. 1-No. 4) were inoculated intramuscularly into immunodeficient mice (Rag2^−/− Il2rg^−/−). Then, microvessel density (MVD) was compared within teratomas in mice among each group. Furthermore, for angiogenesis in teratomas from each human iPS cell lines, microvessel density (MVD) per high-powered field (h.p.f.) of teratomas was quantified by human-specific anti-CD31 immunofluorescence. n=3-6; All values were mean±s.e.m.
By using microvessel density analysis (MVD) within SCID mice that were transplanted with ChiPS cell lines, risk evaluation of malignant transformations were performed for human iPS cell lines established by various methods (3) (4) (5) (6), including the results described herein (FIG. 9). […] Then, p53-175N, p53-175S and p53-175D were identified as p53-mutational spots in human iPS cells which carry mutant p53, with codon 175 in human p53 being known as one mutational spot in human cancer (7).

[3] = test system: human iPS cells which carry mutant p53; assay: PRIMA-1 treatment of human iPS cells carrying mutant p53 (p21 expression, p53-dependent apoptosis); type: cell-based; settings: PRIMA-1 20 μM
Experimental: Next, human iPS cells that carry mutant p53 were selected and treated with PRIMA-1 (20 μM).

[4] = test system: human iPS cells having wild-types p53; assay: PRIMA-1 treatment of human iPS cells carrying wild-type p53 (p53-dependent apoptosis); type: cell-based; settings: PRIMA-1 20 μM; human iPS cells with wild-type p53

Cc1cccc(-c2[nH]ncc2-c2ccc3ncccc3n2)n1 [EMD 616452]
Sox2 reactivation ([1]; 1 μM EMD 616452, Primate ES cell medium): reactivated

O=C1C2CCN(CC2)C1(CO)CO [PRIMA-1, 2,2-Bis(hydroxymethyl)-1-azabicyclo[2.2.2]octan-3-one]
MVD in human iPS cells carrying mutant p53 [2]: equivalent to that of human iPS cell lines established by small molecules
induction of p53-dependent apoptosis ([3]; human iPS cells that have mutant p53): induction of p53-dependent apoptosis
expression of p53 target genes p21 ([3]; human iPS cells which carry mutant p53): induced
induction of p53-dependent apoptosis [4]: not observed; also recorded: not found

CCCC(CCC)C(=O)O [VPA, valproic acid]
Klf4 reactivation ([1]; 0.5 mM VPA, Primate ES cell medium): reactivated
